This note sets out measurements from patent publication US12673954B2 (BRISTOL-MYERS SQUIBB COMPANY, priority 2021, dated 2026).

Where two headings read alike, the source gives them in different places.

Usually EC50 stands for the concentration that produces a half-maximal response.

Assay [1] deals with IRF pathway, THP1-Dual™ cells. The assay is described as follows: STING reporter assay in THP1-Dual cells, IRF pathway (Lucia luciferase, QUANTI-Luc). It is filed as cell-based, human. The settings on record: read-out: IRF (EC50 μM). Put shortly: (§1)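 Activation normalised between DMSO-only baseline and 100 μM cGAMP maximum, after 20 h compound exposure (starting at 100 μM final) at 37° C, 5% CO2. Supernatant SEAP (QUANTI-Blue, OD620) reports NF-κB; secreted luciferase (QUANTI-Luc, RLU at 5 min) reports IRF.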
(In general: A reporter such as luciferase makes a cellular process visible.)

Assay [2] deals with NF-κB pathway, THP1-Dual™ cells. As to the kind of experiment: STING reporter assay in THP1-Dual cells, NF-κB pathway (SEAP, QUANTI-Blue). The assay is classed as cell-based, human. The settings on record: read-out: NFkB (EC50 μM). Put shortly: as §1
The mark [3] stands for this setting: Homo sapiens, THP1-Dual, 20 h, THP1-Dual cells, 10% human plasma, 20 hours, Lucia luciferase, 100% activation = 100 μM cGAMP.
The mark [4] stands for this setting: Homo sapiens, THP1-Dual, 20 h, THP1-Dual cells, 10% human plasma, 20 hours, SEAP, 100% activation = 100 μM cGAMP.
Setting [5] is: THP1-Dual cells, 10% human plasma, 20 hours, Lucia luciferase, 100% activation = 100 μM cGAMP.
Where [6] appears, read: THP1-Dual cells, 10% human plasma, 20 hours, SEAP, 100% activation = 100 μM cGAMP.

As for `CSC(=O)c1cc(F)cc2cc(CN3CCc4ccncc4C3=O)oc12` [EXAMPLE 386, S-Methyl 5-fluoro-2-((1-oxo-3,4-dihydro-2,7-naphthyridin-2(1H)-yl)methyl)benzofuran-7-carbothioate], the results for the EC50 in assay [1] (setting [3]) and in assay [2] (setting [4]) were 3.4 µM and 3.7 µM, respectively.

Regarding `CCSC(=O)c1cc(F)cc2cc(CNC(=O)c3cnn4cccnc34)oc12` [EXAMPLE 387, S-Ethyl 5-fluoro-2-((pyrazolo[1,5-a]pyrimidine-3-carboxamido)methyl)benzofuran-7-carbothioate], the concentration for a half-maximal effect (EC50) in assay [1] (setting [3]) stood at 1.9 µM; in assay [2] (setting [4]) it was 2.1 µM.

Regarding `O=C(SCC(F)(F)F)c1cc(F)cc2cc(CNC(=O)c3cnn4cccnc34)oc12` [EXAMPLE 388, S-(2,2,2-Trifluoroethyl) 5-fluoro-2-((pyrazolo[1,5-a]pyrimidine-3-carboxamido)methyl)benzofuran-7-carbothioate], the EC50 in assay [1] (setting [3]) came to 1.5 µM; in assay [2] (setting [4]) it was 1.4 µM.

With `Cc1cc(C(=O)SCC(F)(F)F)c2oc(CNC(=O)c3cnn4cccnc34)cc2c1` [EXAMPLE 389, S-(2,2,2-Trifluoroethyl) 5-methyl-2-((pyrazolo[1,5-a]pyrimidine-3-carboxamido)methyl)benzofuran-7-carbothioate], the EC50 amounted to 0.58 µM in assay [1] (setting [3]) and 0.56 µM in assay [2] (setting [4]).

`CCSC(=O)c1cc(C)cc2cc(CNC(=O)c3cnn4cccnc34)oc12` [EXAMPLE 390, S-Ethyl 5-methyl-2-((pyrazolo[1,5-a]pyrimidine-3-carboxamido)methyl)benzofuran-7-carbothioate]: the EC50 amounted to 0.53 µM in assay [1] (setting [3]) and 0.29 µM in assay [2] (setting [4]).

In the case of `CSC(=O)c1cc(C)cc2cc(CNC(=O)c3cnn4cccnc34)oc12` [EXAMPLE 391, S-Methyl 5-methyl-2-((pyrazolo[1,5-a]pyrimidine-3-carboxamido)methyl)benzofuran-7-carbothioate], the concentration for a half-maximal effect (EC50) was determined as 0.75 µM in assay [1] (setting [3]) and 0.61 µM in assay [2] (setting [4]).

Take `C[Si](C)(C)CCSC(=O)c1cc(F)cc2c(Cl)c(CNC(=O)c3cnn4cccnc34)oc12` [EXAMPLE 392, S-(2-(Trimethylsilyl)ethyl) 3-chloro-5-fluoro-2-((pyrazolo[1,5-a]pyrimidine-3-carboxamido)methyl)benzofuran-7-carbothioate]: the EC50 is 3.4 µM in assay [1] (Homo sapiens, THP1-Dual, 20 h) and 2.7 µM in assay [2] (Homo sapiens, THP1-Dual, 20 h).

`CSC(=O)c1cc(F)cc2c(Cl)c(CNC(=O)c3cnn4cccnc34)oc12` [EXAMPLE 393, S-Methyl 3-chloro-5-fluoro-2-((pyrazolo[1,5-a]pyrimidine-3-carboxamido)methyl)benzofuran-7-carbothioate]: the 50% effective concentration (EC50) in assay [1] (setting [3]) came out at 0.39 µM; in assay [2] (setting [4]), 0.3 µM.

For `C[Si](C)(C)CCSC(=O)c1cc(Cl)cc2cc(CNC(=O)c3cnn4cccnc34)oc12` [EXAMPLE 394], the EC50 in assay [1] (Homo sapiens, THP1-Dual, 20 h) is more than 100 µM; in assay [2] (Homo sapiens, THP1-Dual, 20 h), 11 µM.

As to `CSC(=O)c1cc(Cl)cc2cc(CNC(=O)c3cnn4cccnc34)oc12` [EXAMPLE 395], the EC50 was determined as 2.1 µM in assay [1] (setting [3]) and 1.9 µM in assay [2] (setting [4]).

For `CSC(=O)c1cc(Cl)cc2c(Cl)c(CNC(=O)c3cnn4cccnc34)oc12` [EXAMPLE 396], the EC50 in assay [1] (setting [3]) stood at 0.36 µM; in assay [2] (setting [4]), 0.37 µM.

`CSC(=O)c1cc(C)cc2c(Cl)c(CNC(=O)c3cnn4cccnc34)oc12` [EXAMPLE 397]: the EC50 is 0.46 µM in assay [1] (setting [3]) and 0.47 µM in assay [2] (setting [4]).

As for `C[C@H](NC(=O)c1cnn2cccnc12)c1cc2cc(F)cc(C(=O)SCC[Si](C)(C)C)c2o1` [EXAMPLE 398, S-(2-(Trimethylsilyl)ethyl) (S)-5-fluoro-2-(1-(pyrazolo[1,5-a]pyrimidine-3-carboxamido)ethyl)benzofuran-7-carbothioate], the EC50 in assay [1] (Homo sapiens, THP1-Dual, 20 h) is 9.4 µM; in assay [2] (Homo sapiens, THP1-Dual, 20 h), 5.7 µM.

As for `CSC(=O)c1cc(F)cc2cc([C@H](C)NC(=O)c3cnn4cccnc34)oc12` [EXAMPLE 399, S-Methyl (S)-5-fluoro-2-(1-(pyrazolo[1,5-a]pyrimidine-3-carboxamido)ethyl)benzofuran-7-carbothioate], the EC50 turned out to be 1.3 µM in assay [1] (setting [3]) and 1.5 µM in assay [2] (setting [4]).

For the compound `C[C@H](NC(=O)c1cnn2cccnc12)c1cc2cc(Cl)cc(C(=O)SCC[Si](C)(C)C)c2o1` [EXAMPLE 400, S-(2-(Trimethylsilyl)ethyl) (S)-5-chloro-2-(1-(pyrazolo[1,5-a]pyrimidine-3-carboxamido)ethyl)benzofuran-7-carbothioate], the concentration giving a half-maximal response (EC50) in assay [1] (Homo sapiens, THP1-Dual, 20 h) amounted to 25 µM; in assay [2] (Homo sapiens, THP1-Dual, 20 h), 22 µM.

Turning to `CSC(=O)c1cc(Cl)cc2cc([C@H](C)NC(=O)c3cnn4cccnc34)oc12` [EXAMPLE 401], the EC50 in assay [1] (setting [3]) and in assay [2] (setting [4]) was 1.9 µM throughout.

In the case of `CSC(=O)c1cc(Cl)cc2c(Cl)c([C@H](C)NC(=O)c3cnn4cccnc34)oc12` [EXAMPLE 402], the 50% effective concentration (EC50) in assay [1] (setting [3]) and in assay [2] (setting [4]) was 2.4 µM in each case.

For `O=C(NCC(F)(F)F)c1cc(Cl)cc2cc(CNC(=O)c3cnn4cccnc34)oc12` [EXAMPLE 403, N-((5-Chloro-7-((2,2,2-trifluoroethyl)carbamoyl)benzofuran-2-yl)methyl)pyrazolo[1,5-a]pyrimidine-3-carboxamide], the EC50 in assay [1] (setting [3]) was more than 100 µM; in assay [2] (setting [4]), 97 µM.

Turning to `Cc1cc(C(N)=O)c2oc(CNC(=O)c3cnn4cccnc34)cc2c1` [EXAMPLE 404, N-((7-Carbamoyl-5-methylbenzofuran-2-yl)methyl)pyrazolo[1,5-a]pyrimidine-3-carboxamide], the EC50 in assay [1] (setting [3]) is more than 100 µM; in assay [2] (setting [4]) it was 83 µM.

Turning to `O=C(NO)c1cc(Cl)cc2cc(CNC(=O)c3cnn4cccnc34)oc12` [EXAMPLE 405, N-((5-Chloro-7-(hydroxycarbamoyl)benzofuran-2-yl)methyl)pyrazolo[1,5-a]pyrimidine-3-carboxamide], the half-maximal effective concentration (EC50) in assay [1] (setting [3]) was 30 µM; in assay [2] (setting [4]) it was 61 µM.

On to `CONC(=O)c1cc(Cl)cc2cc(CNC(=O)c3cnn4cccnc34)oc12` [EXAMPLE 406, N-((5-Chloro-7-(methoxycarbamoyl)benzofuran-2-yl)methyl)pyrazolo[1,5-a]pyrimidine-3-carboxamide], for which the results for the half-maximal effective concentration (EC50) in assay [1] (setting [3]) and in assay [2] (setting [4]) were 9.4 µM and 7.1 µM, respectively.

As to `Cc1cc(C(=O)NO)c2oc(CNC(=O)c3cnn4cccnc34)c(Cl)c2c1` [EXAMPLE 407, N-((3-chloro-7-(hydroxycarbamoyl)-5-methylbenzofuran-2-yl)methyl)pyrazolo[1,5-a]pyrimidine-3-carboxamide], the EC50 amounted to 30 µM in assay [1] (setting [3]) and 37 µM in assay [2] (setting [4]).

As to `CONC(=O)c1cc(C)cc2c(Cl)c(CNC(=O)c3cnn4cccnc34)oc12` [EXAMPLE 408, N-((3-chloro-7-(methoxycarbamoyl)-5-methylbenzofuran-2-yl)methyl)pyrazolo[1,5-a]pyrimidine-3-carboxamide], the values for the 50% effective concentration (EC50) in assay [1] (setting [3]) and in assay [2] (setting [4]) were 0.91 µM and 1.2 µM, respectively.

On to `O=C(NCc1cc2cc(Cl)cc(-c3nnn[nH]3)c2o1)c1cncc2cccnc12` [EXAMPLE 410, N-((5-Chloro-7-(1H-tetrazol-5-yl)benzofuran-2-yl)methyl)-1,6-naphthyridine-8-carboxamide], for which the EC50 in assay [1] (setting [3]) was 79 µM; in assay [2] (setting [4]), more than 100 µM.

With `COC(=O)Cc1cc(F)cc2cc(CNC(=O)c3cnn4cccnc34)oc12` [Example 47, Methyl 2-(5-fluoro-2-((pyrazolo[1,5-a]pyrimidine-3-carboxamido)methyl)benzofuran-7-yl)acetate], the EC50 came out at 6.7 µM in assay [1] (setting [3]) and 8.5 µM in assay [2] (setting [4]).

For the compound `COC(=O)c1cc(Cl)cc2cc(CNC(=O)c3cnn4cccnc34)oc12` [Example 48, Methyl 5-chloro-2-((pyrazolo[1,5-a]pyrimidine-3-carboxamido)methyl)benzofuran-7-carboxylate], the concentration for a half-maximal effect (EC50) came to 0.64 µM in assay [1] (setting [3]) and 0.68 µM in assay [2] (setting [4]).

As to `COC(=O)c1cc(Cl)cc2cc(CNC(=O)c3[nH]nc4cccnc34)oc12` [Example 49, Methyl 2-((2H-pyrazolo[4,3-b]pyridine-3-carboxamido)methyl)-5-chlorobenzofuran-7-carboxylate], the figures for the 50% effective concentration (EC50) in assay [1] (setting [3]) and in assay [2] (setting [4]) were 71 µM and 93 µM, respectively.

Consider `COC(=O)c1cc(Cl)cc2cc(CNC(=O)c3cncc4cccnc34)oc12` [Example 50, Methyl 2-((1,6-naphthyridine-8-carboxamido)methyl)-5-chlorobenzofuran-7-carboxylate], for which the concentration for a half-maximal effect (EC50) came to 0.93 µM in assay [1] (setting [3]) and 1.1 µM in assay [2] (setting [4]).

Take `COC(=O)c1cc(Cl)cc2cc(CNC(=O)c3cnn4ccc(OC)nc34)oc12` [Example 51, Methyl 5-chloro-2-((5-methoxypyrazolo[1,5-a]pyrimidine-3-carboxamido)methyl) benzofuran-7-carboxylate]: the concentration giving a half-maximal response (EC50) is 4 µM in assay [1] (setting [5]) and 3.1 µM in assay [2] (setting [6]).

Regarding `COC(=O)c1cc(Cl)cc2cc(CNC(=O)c3cnc4cccnn34)oc12` [Example 52, Methyl 5-chloro-2-((imidazo[1,2-b]pyridazine-3-carboxamido)methyl) benzofuran-7-carboxylate], the EC50 in assay [1] (setting [5]) came to 8 µM; in assay [2] (setting [6]), 9.8 µM.

On to `COC(=O)c1cc(Cl)cc2cc(CNC(=O)c3cc(N)ccn3)oc12` [Example 53, Methyl 2-((4-aminopicolinamido)methyl)-5-chlorobenzofuran-7-carboxylate], for which the concentration giving a half-maximal response (EC50) was found to be 22 µM in assay [1] (setting [3]) and 27 µM in assay [2] (setting [4]).
